Results reported in publication PMC140036 (BMC Pharmacology, 2003).
Like-named read-outs stand apart in the source and are kept apart here.

Tests used:
[1] = target: T1, mouse μ opioid receptor (Mus musculus, UniProt P42866); test: cell-based; settings: for Emax: HEK293, read-out: Max Inhibition
[2] = target: T1, mouse μ opioid receptor; test: biochemical; type: binding

T1 sequence (P42866 whole entry): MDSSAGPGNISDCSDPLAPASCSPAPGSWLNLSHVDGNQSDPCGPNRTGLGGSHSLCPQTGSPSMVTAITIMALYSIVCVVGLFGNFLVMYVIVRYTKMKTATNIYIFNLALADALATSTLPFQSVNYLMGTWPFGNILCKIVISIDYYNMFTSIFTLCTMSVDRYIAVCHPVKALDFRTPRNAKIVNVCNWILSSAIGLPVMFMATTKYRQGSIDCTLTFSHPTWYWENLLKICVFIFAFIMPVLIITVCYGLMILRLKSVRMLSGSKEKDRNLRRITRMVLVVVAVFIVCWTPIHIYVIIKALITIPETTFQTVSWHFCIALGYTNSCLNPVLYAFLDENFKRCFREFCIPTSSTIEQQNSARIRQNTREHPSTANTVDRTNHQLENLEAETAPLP

| SMILES | IC50 [1] | Emax [1] | Ki [2] | Max Inhibition [1] | IC50 ([1]; read-out: IC50 ± SEM) |
| --- | --- | --- | --- | --- | --- |
| Oc1ccc2c(c1)[C@@]13CCCC[C@@]1(O)[C@@H](C2)N(CC1CCC1)CC3 [Butorphanol] | 3 ± 2 nM | 58 ± 5% |  |  |  |
| C[C@H]1[C@H]2Cc3ccc(O)cc3[C@]1(C)CCN2CC1CC1 [Cyclazocine] | 21 ± 8 nM | 37 ± 2% | 0.22 ± 0.02 nM |  |  |
| C[C@@H](NC(=O)[C@@H](N)Cc1ccc(O)cc1)C(=O)NCC(=O)N(C)[C@@H](Cc1ccccc1)C(=O)NCCO [DAMGO] |  |  |  | 58 ± 5% |  |
| C[C@@]12CCCCC[C@@H](Cc3ccc(O)cc31)[C@@H]2N [Dezocine] | 1.3 ± 0.6 nM | 43 ± 2% |  |  |  |
| C[C@H]1[C@H]2Cc3ccc(O)cc3[C@]1(C)CCN2C [Metazocine] | 2 ± 0.1 nM | 41 ± 4% |  |  |  |
| C=CCN1CC[C@]23c4c5ccc(O)c4O[C@H]2[C@@H](O)C=C[C@H]3[C@H]1C5 [Nalorphine] | 2.7 ± 1.4 nM | 50 ± 2% |  |  |  |
| C=C1C[C@H](C)[C@H]2[C@H]3Cc4ccc(O)cc4[C@@]2(CCN3CC2CCC2)C1 [Xorphanol] |  |  |  | 29 ± 2 ⊕⊕^## % | 3.4 ± 1.7 nM |
